Laboratory results: publication PMC3466204 (PLoS ONE, 2012)
Where “and” joins values, the source holds several entries; their conditions need not be identical. Equal values may be shown once. Ends that are not written are not given here.

Columns and labels:
Lactococcus lactis HP = test: Agarose-based assay of cell-free supernatants of S29X producing strains; details: for Zone Diameter (mm): agarose (1%) GM17 assay, 10 µl cell-free supernatant of overnight producing culture in 4.6 mm wells, L. lactis HP, 30°C; for % difference (zone relative to wild type): agarose assay of supernatants against L. lactis HP, wild type serine = 100
Method: (§1) Agarose-based deferred antagonism assays were carried out as follows: GM17/LB (0.03%) underlay was prepared with 10 mM sodium phosphate buffer (SPB) at pH 7.4 to which was added agarose (1% w/v agarose), autoclaved and cooled to 50°C. Bacteria grown to mid-logarithmic phase were harvested by centrifugation and washed with 10 mM SPB at pH 7.4. Bacteria were then added to 15 mls cooled underlay medium to reach a concentration of 2×10^7 colony-forming units (CFU)/mL. The inoculated medium was rapidly transferred into sterile Petri plates, allowed to solidify and dried. Wells (4.6 mm in diameter) were then made in the seeded plates. 10 µl volumes of cell-free supernatant from overnight nisin derivative producing cultures or resuspended purified peptides were then added to the wells and the plates incubated at 30°C (L. lactis) or 37°C (Gram positive strains) or RT (Gram negative strains) for 3 hours. Polymyxin B (Sigma Aldrich) was used at a concentration of 20 µg/ml. The plates were then overlaid with 15 mls of autoclaved double strength GM17 (L. lactis) or LB (Gram negatives) agarose (1% w/v agarose) overlay medium precooled to 50°C. The plates were then incubated overnight at the relevant temperature.

L. lactis HP = test: Broth MIC, Gram positive; type: cell-based; details: broth microtitre, BSA pre-treated plates, 10^5 cfu ml^−1, 2-fold dilutions from 500 nM, 16 h, purified peptide, mean of triplicate assays
Method: (§2) Minimum inhibitory concentration determinations for Gram positive organisms were carried out in triplicate in microtitre plates (Sarstedt). 96 well microtitre plates were pre-treated with bovine serum albumin (BSA) prior to addition of the peptides. Briefly, to each well of the microtitre plate 200 µL of phosphate buffered saline (PBS) containing 1% (w/v) bovine serum albumin (PBS/BSA) was added and incubated at 37°C for 30 min. The wells were washed with 200 µL PBS and allowed to dry. Target strains were grown overnight in the appropriate conditions and medium, subcultured into fresh broth and allowed to grow to an OD600 of ∼0.5, diluted to a final concentration of 10^5 cfu ml^−1 in a volume of 0.2 ml. Wild type nisin and nisin mutant peptides were adjusted to a 10 µM (S. mitis, B. cereus), 7.5 µM (L. monocytogenes), 5 µM (hVISA) 2.5 µM (MRSA, E. durans), or 500 nM (L. lactis strains) starting concentration and 2-fold serial dilutions of each peptide were added to the target strain.

L. lactis MG1363 [1] = test: Broth MIC, Gram positive; type: cell-based; details: broth microtitre, BSA pre-treated plates, 10^5 cfu ml^−1, 2-fold dilutions from 500 nM, 16 h, purified peptide, mean of triplicate assays
Method: as §2

L. monocytogenes 10403S = test: Broth MIC, Gram positive; type: cell-based; details: broth microtitre, BSA pre-treated plates, 10^5 cfu ml^−1, 2-fold dilutions from 7.5 µM, 16 h 37°C, purified peptide, mean of triplicate assays
Method: as §2

L. monocytogenes LO28 = test: Broth MIC, Gram positive; type: cell-based; details: broth microtitre, BSA pre-treated plates, 10^5 cfu ml^−1, 2-fold dilutions from 7.5 µM, 16 h 37°C, purified peptide, mean of triplicate assays
Method: as §2

S. aureus RF122 = test: Broth MIC, Gram positive; type: cell-based; details: broth microtitre, BSA pre-treated plates, 10^5 cfu ml^−1, 2-fold dilutions, 16 h 37°C, purified peptide, mean of triplicate assays
Method: as §2

[2] = tested on: ST 528 (Methicillin resistant S. aureus); test: Broth MIC, Gram positive; type: cell-based; details: broth microtitre, BSA pre-treated plates, 10^5 cfu ml^−1, 2-fold dilutions from 2.5 µM, 16 h 37°C, purified peptide, mean of triplicate assays
Method: as §2

[3] = tested on: ST 530 (Methicillin resistant S. aureus); test: Broth MIC, Gram positive; type: cell-based; details: broth microtitre, BSA pre-treated plates, 10^5 cfu ml^−1, 2-fold dilutions from 2.5 µM, 16 h 37°C, purified peptide, mean of triplicate assays
Method: as §2

[4] = tested on: hVISA 32679 (heterogenous Vancomycin-intermediate S. aureus); test: Broth MIC, Gram positive; type: cell-based; details: broth microtitre, BSA pre-treated plates, 10^5 cfu ml^−1, 2-fold dilutions from 5 µM, 16 h 37°C, purified peptide, mean of triplicate assays
Method: as §2

S. mitis UCC5000 = test: Broth MIC, Gram positive; type: cell-based, Streptococcus mitis; details: broth microtitre, BSA pre-treated plates, 10^5 cfu ml^−1, 2-fold dilutions from 10 µM, 16 h 37°C, purified peptide, mean of triplicate assays
Method: as §2

B. cereus DPC 6088 = test: Broth MIC, Gram positive; type: cell-based, Bacillus cereus; details: broth microtitre, BSA pre-treated plates, 10^5 cfu ml^−1, 2-fold dilutions from 10 µM, 16 h 37°C, purified peptide, mean of triplicate assays
Method: as §2

B. cereus DPC 6089 = test: Broth MIC, Gram positive; type: cell-based, Bacillus cereus; details: broth microtitre, BSA pre-treated plates, 10^5 cfu ml^−1, 2-fold dilutions from 10 µM, 16 h 37°C, purified peptide, mean of triplicate assays
Method: as §2

E. durans 5133 = test: Broth MIC, Gram positive; type: cell-based, Enterococcus durans; details: broth microtitre, BSA pre-treated plates, 10^5 cfu ml^−1, 2-fold dilutions from 2.5 µM, 16 h 37°C, purified peptide, mean of triplicate assays
Method: as §2

C. sakazakii DPC 6440 [5] = test: Agarose gel diffusion assay, purified peptide; type: cell-based, Cronobacter sakazakii; details: purified peptide 60 µM; for Zone of inhibition, agarose gel diffusion: C. sakazakii DPC 6440, mean of triplicate assays
Method: as §1

E. coli 0157-H7 [6] = test: Agarose gel diffusion assay, purified peptide; type: cell-based; details: purified peptide 60 µM; for Zone of inhibition, agarose gel diffusion: E. coli 0157-H7, mean of triplicate assays
Method: as §1

[7] = tested on: Salmonella enterica serovar Typhimurium UK1; test: Agarose gel diffusion assay, purified peptide; type: cell-based; details: purified peptide 60 µM; for Zone of inhibition, agarose gel diffusion: Salmonella Typhimurium UK1, mean of triplicate assays
Method: as §1

C. sakazakii DPC 6440 [8] = test: Broth MIC, Gram negative; type: cell-based, Cronobacter sakazakii; details: cells washed in 10 mM SPB pH 7.4, 2×10^5 CFU/mL, 2 h RT with peptide, then double strength LB, RT overnight, mean of triplicate assays
Method: (§3) Minimum inhibitory concentration determinations for Gram negative strains were carried out in triplicate in 96 well microtitre plates. Briefly, bacteria (E. coli, C. sakazakii and Salmonella) grown to mid-logarithmic phase were harvested by centrifugation, washed with 10 mM SPB at pH 7.4, and diluted to 2×10^5 colony-forming units (CFU)/mL in SPB. Nisin and nisin derivative peptides were resuspended in sterile HPLC water and 50 µL aliquots were added to wells containing 50 µL of 2×10^5 CFU of bacteria. Plates were incubated at RT for two hours with agitation. Double strength Luria–Bertani (LB) broth (100 µL) was added and the plates were incubated at RT overnight, the MIC was taken as the lowest concentration at which growth was inhibited.

E. coli 0157-H7 [9] = test: Broth MIC, Gram negative; type: cell-based; details: cells washed in 10 mM SPB pH 7.4, 2×10^5 CFU/mL, 2 h RT with peptide, then double strength LB, RT overnight, mean of triplicate assays
Method: as §3

[10] = tested on: Salmonella enterica serovar Typhimurium UK1; test: Broth MIC, Gram negative; type: cell-based; details: cells washed in 10 mM SPB pH 7.4, 2×10^5 CFU/mL, 2 h RT with peptide, then double strength LB, RT overnight, mean of triplicate assays
Method: as §3

C. sakazakii DPC 6440 [11] = test: Agarose gel diffusion assay, peptide alone or with polymyxin B nonapeptide (PMBN); type: cell-based, Cronobacter sakazakii; details: for Total area of inhibitory zone, peptide alone: purified peptide 30 µM alone; for Total area of inhibitory zone, peptide + PMBN: purified peptide 30 µM in combination with polymyxin B nonapeptide (PMBN) 20 µg/ml
Method: as §1
Polymyxin B (PMB) is a cyclic lipodecapaptide produced by bacteria of the genus Paenibacillus that acts primarily on the Gram negative cell wall, leading to rapid permeability changes in the cytoplasmic membrane and ultimately cell death. […] To that end, C. sakazakii DPC 6440 cells were treated with purified nisin A, S29G and S29A peptides alone (30 µM) or in combination with PMBN at a concentration of 20 µg/ml and determined the antimicrobial activity by agarose gel diffusion assay (Fig. 5). […] When used in combination with PMBN, a substantial synergistic effect was clearly evident (Fig. 5) but in this instance no significant difference in efficacy was observed between nisin A or either of the derivatives S29A or S29G.

C. sakazakii DPC 6440 [12] = test: Kill curve analysis; type: cell-based, Cronobacter sakazakii; details: 33 mg/L purified peptide, 2×10^5 cfu ml^−1, 37°C for 1 hour
Method: (§4) Using purified peptide in each case, 10 mM sodium phosphate buffer washed C. sakazakii, E. coli and Salmonella strains were diluted to a final concentration of 2×10^5 cfu ml^−1 and were exposed to nisin A, S29G and S29A at a concentration of 33 mg/L. Following incubation at 37°C for 1 hour, bacterial growth was monitored through plate counts.

E. coli = test: Kill curve analysis; type: cell-based; details: 33 mg/L purified peptide, 2×10^5 cfu ml^−1, 37°C for 1 hour
Method: as §4

S. typhimurium UK-1 = test: Kill curve analysis; type: cell-based, Salmonella enterica serovar Typhimurium; details: 33 mg/L purified peptide, 2×10^5 cfu ml^−1, 37°C for 1 hour
Method: as §4

L. lactis MG1363 [13] = details: truncated nisin, ref [36]; cited from earlier work
Description: The increased efficacy resulted from a single mutation located at serine 29, within the C-terminal of nisin. The importance of Serine 29 for activity has previously been noted when Chan et al report ...

| Substance | Zone Diameter (mm) (Lactococcus lactis HP) | % difference (zone relative to wild type) (Lactococcus lactis HP) | MIC (L. lactis HP) | MIC (L. lactis MG1363 [1]) | MIC (L. monocytogenes 10403S) | MIC (L. monocytogenes LO28) | MIC (S. aureus RF122) | MIC [2] | MIC [3] | MIC [4] | MIC (S. mitis UCC5000) | MIC (B. cereus DPC 6088) | MIC (B. cereus DPC 6089) | MIC (E. durans 5133) | Zone of inhibition, agarose gel diffusion (C. sakazakii DPC 6440 [5]) [mm] | Zone of inhibition, agarose gel diffusion (E. coli 0157-H7 [6]) [mm] | Zone of inhibition, agarose gel diffusion [7] [mm] | MIC (C. sakazakii DPC 6440 [8]) | MIC (E. coli 0157-H7 [9]) | MIC [10] | other results |
| --- | --- | --- | --- | --- | --- | --- | --- | --- | --- | --- | --- | --- | --- | --- | --- | --- | --- | --- | --- | --- | --- |
| S29A: bioengineered nisin A derivative, serine 29 replaced by alanine (ITSISLCTPGCKTGALMGCNMKTATCHCAIHVSK; not fully specified (residues 2, 5, 33, bridges); cysteine pairing not given here; UniProt P13068 24-57, looked up, variant S29A) | 16.6±0.3 | 109 (0.004) % | 0.1 mg/L and 0.031 µM | 0.2 mg/L and 0.062 µM | 6.28 mg/L and 1.875 µM | 3.14 mg/L and 0.937 µM | 0.52 mg/L and 0.156 µM | 0.26 mg/L and 0.078 µM | 0.26 mg/L and 0.078 µM | 2 mg/L and 0.625 µM | 4.19 mg/L | 2 mg/L | 4.19 mg/L and 1.25 µM | 0.13 mg/L and 0.039 µM | 11.65±0.12 | 11.50±0.05 | 11.29±0.23 | 6.28 mg/L and 1.875 µM | 25.14 mg/L and 7.5 µM | 50.28 mg/L and 15 µM | Zone as % wt (C. sakazakii DPC 6440 [5]; C. sakazakii DPC 6440, relative to nisin A): 119 % wt; Zone as % wt (E. coli 0157-H7 [6]; E. coli 0157-H7, relative to nisin A): 117 % wt; Zone as % wt ([7]; Salmonella Typhimurium UK1, relative to nisin A): 114 % wt; Total area of inhibitory zone, peptide alone (C. sakazakii DPC 6440 [11]): 49.0±1.24 mm^2; Total area of inhibitory zone, peptide + PMBN (C. sakazakii DPC 6440 [11]): 121.5±6.3 mm^2; Killing compared with nisin A (plate counts) (C. sakazakii DPC 6440 [12]): greater activity than wildtype nisin A; Killing compared with nisin A (plate counts) (E. coli): greater activity than wildtype nisin A; Killing compared with nisin A (plate counts) (S. typhimurium UK-1): greater activity than wildtype nisin A |
| nisin 1–28: truncated version of nisin, literature (ITSISLCTPGCKTGALMGCNMKTATCHC; ends and bridges not checked; cysteine pairing not given here; UniProt P13068 24-51, looked up, fragment) |  |  |  |  |  |  |  |  |  |  |  |  |  |  |  |  |  |  |  |  | fold reduced inhibitory activity relative to nisin (L. lactis MG1363 [13]): 100 fold |
| nisin A (ITSISLCTPGCKTGALMGCNMKTATCHCSIHVSK; thioether (positions not given here); not fully specified (residues 2, 5, 33, bridges); also: lantibiotic, ring and dehydro modifications not given here; UniProt P13068 24-57, looked up) [wild type lantibiotic bacteriocin purified from L. lactis NZ9700; serine at position 29, reference compound] | 15.2±0.2 | 100% | 0.2 mg/L and 0.062 µM | 0.8 mg/L and 0.250 µM | 12.57 mg/L and 3.75 µM | 6.28 mg/L and 1.875 µM | 1.04 mg/L | 0.52 mg/L and 0.156 µM | 0.52 mg/L and 0.156 µM | 4.19 mg/L | 8.38 mg/L and 2.5 µM | 8.38 mg/L and 2.5 µM | 8.38 mg/L and 2.5 µM | 0.52 mg/L and 0.156 µM | 9.77±0.17 | 9.81±0.04 | 9.88±0.11 | 12.57 mg/L and 3.75 µM | 50.28 mg/L and 15 µM | > 100 mg/L and > 30 µM | MIC (S. aureus RF122; listed as NisinA): 0.312 µM; MIC ([4]; listed as NisinA): 1.25 µM; Total area of inhibitory zone, peptide alone (C. sakazakii DPC 6440 [11]): 40.0±2.3 mm^2; Total area of inhibitory zone, peptide + PMBN (C. sakazakii DPC 6440 [11]): 115.61±2.9 mm^2 |
